From ChEMBL document CHEMBL1201862, “PubChem BioAssay data set” (2004)
Calls of active or inactive are those of the source.

Assays:
Kallikrein-7 = Kallikrein-7 (Homo sapiens, UniProt P49862); assay: Fluorescence Intensity-based biochemical primary high throughput dose response assay to identify activators of kallikrein-7 (K7) zymogen.
[1] = non-specific cell cytotoxicity, dose response, cytotoxicity control for PAX8 inhibitor project, plate reader, dry powder samples (AID 743021); format: functional, cell-based
Hexokinase-1 = molecular target: T1, Hexokinase-1 (Homo sapiens, UniProt P19367); assay: hexokinase 1 activators, dose response, selectivity assay for HKDC1 activator project, biochemical (AID 504762); format: functional
T1 sequence (P19367 whole entry): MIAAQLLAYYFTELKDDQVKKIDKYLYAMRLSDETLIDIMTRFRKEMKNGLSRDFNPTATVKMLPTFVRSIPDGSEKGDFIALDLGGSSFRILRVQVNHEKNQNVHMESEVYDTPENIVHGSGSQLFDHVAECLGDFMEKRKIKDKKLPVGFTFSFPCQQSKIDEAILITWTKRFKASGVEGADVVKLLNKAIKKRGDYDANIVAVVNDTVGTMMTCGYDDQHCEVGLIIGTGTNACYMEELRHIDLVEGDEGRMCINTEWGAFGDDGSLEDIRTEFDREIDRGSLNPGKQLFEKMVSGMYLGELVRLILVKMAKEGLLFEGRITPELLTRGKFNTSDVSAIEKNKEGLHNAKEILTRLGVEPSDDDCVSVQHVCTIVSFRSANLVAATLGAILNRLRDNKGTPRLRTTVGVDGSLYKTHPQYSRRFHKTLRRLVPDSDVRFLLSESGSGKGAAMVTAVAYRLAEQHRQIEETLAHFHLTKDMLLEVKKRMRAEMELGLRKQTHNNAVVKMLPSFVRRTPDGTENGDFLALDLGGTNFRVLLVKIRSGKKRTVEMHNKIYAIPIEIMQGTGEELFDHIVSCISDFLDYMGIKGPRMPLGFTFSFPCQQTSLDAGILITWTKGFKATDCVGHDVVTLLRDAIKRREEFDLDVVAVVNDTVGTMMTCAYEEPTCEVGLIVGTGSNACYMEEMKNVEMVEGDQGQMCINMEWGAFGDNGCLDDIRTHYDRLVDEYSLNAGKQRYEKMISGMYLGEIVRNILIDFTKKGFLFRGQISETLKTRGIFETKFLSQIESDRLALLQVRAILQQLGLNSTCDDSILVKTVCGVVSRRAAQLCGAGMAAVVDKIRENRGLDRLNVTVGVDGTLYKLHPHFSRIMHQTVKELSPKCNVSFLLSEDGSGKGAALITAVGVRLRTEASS

[2] = molecular target: Tyrosyl-DNA phosphodiesterase 2 (Homo sapiens, UniProt O95551); assay: human TDP2 enzyme inhibitors, dose response, biochemical, epi absorbance, IC50 (AID 743297)
Paired box protein Pax-8 = Paired box protein Pax-8 (Homo sapiens, UniProt Q06710); assay: inhibitors of PAX8-driven TPO luciferase reporter, dose response, RMG-I cells, cherry-pick (AID 687027); format: functional, cell-based;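 note: luciferase reporter driven by Pax8 target thyroperoxidase promoter measured by SteadyGlo luminescence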
Hexokinase HKDC1 = molecular target: T2, Hexokinase HKDC1 (Homo sapiens, UniProt Q2TB90); assay: HKDC1 hexokinase activators, dose response, biochemical, W721R variant (AID 504730); format: functional
T2 sequence (Q2TB90 whole entry): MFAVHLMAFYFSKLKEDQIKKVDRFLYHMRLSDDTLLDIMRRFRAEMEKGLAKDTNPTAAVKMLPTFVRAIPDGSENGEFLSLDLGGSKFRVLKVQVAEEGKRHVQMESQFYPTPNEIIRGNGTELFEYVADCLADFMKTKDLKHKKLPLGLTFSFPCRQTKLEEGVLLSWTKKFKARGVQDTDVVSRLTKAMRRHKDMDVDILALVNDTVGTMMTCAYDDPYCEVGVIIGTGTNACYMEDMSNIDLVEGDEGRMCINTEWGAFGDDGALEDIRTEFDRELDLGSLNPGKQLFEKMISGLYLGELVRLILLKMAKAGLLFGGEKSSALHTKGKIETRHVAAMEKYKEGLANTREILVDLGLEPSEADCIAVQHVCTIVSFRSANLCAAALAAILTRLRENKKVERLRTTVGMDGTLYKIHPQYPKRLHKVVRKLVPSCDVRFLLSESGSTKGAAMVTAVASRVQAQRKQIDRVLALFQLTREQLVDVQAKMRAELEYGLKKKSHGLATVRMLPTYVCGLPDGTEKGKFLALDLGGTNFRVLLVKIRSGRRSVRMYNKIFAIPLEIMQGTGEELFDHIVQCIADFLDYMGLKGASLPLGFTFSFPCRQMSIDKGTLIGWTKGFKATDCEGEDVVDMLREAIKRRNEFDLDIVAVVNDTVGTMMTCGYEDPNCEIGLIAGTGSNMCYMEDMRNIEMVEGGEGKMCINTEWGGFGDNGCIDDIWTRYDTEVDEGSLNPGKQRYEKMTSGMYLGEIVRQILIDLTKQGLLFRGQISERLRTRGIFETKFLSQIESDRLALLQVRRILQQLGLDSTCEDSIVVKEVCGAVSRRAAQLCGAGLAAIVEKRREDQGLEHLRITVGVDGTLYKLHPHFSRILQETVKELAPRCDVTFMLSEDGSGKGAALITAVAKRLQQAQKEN

[3] = molecular target: 1-phosphatidylinositol 4,5-bisphosphate phosphodiesterase gamma-1 (Homo sapiens, UniProt P19174); assay: Counterscreen for inhibitors of phospholipase C isozymes (PLC-B3): Fluorescence-based biochemical high throughput dose response assay to identify inhibitors of phospholipase C isozymes (PLC-gamma1).
[4] = molecular target: T3, Histone-lysine N-methyltransferase NSD2 (Homo sapiens, UniProt O96028); format: biochemical
T3 sequence (O96028 whole entry): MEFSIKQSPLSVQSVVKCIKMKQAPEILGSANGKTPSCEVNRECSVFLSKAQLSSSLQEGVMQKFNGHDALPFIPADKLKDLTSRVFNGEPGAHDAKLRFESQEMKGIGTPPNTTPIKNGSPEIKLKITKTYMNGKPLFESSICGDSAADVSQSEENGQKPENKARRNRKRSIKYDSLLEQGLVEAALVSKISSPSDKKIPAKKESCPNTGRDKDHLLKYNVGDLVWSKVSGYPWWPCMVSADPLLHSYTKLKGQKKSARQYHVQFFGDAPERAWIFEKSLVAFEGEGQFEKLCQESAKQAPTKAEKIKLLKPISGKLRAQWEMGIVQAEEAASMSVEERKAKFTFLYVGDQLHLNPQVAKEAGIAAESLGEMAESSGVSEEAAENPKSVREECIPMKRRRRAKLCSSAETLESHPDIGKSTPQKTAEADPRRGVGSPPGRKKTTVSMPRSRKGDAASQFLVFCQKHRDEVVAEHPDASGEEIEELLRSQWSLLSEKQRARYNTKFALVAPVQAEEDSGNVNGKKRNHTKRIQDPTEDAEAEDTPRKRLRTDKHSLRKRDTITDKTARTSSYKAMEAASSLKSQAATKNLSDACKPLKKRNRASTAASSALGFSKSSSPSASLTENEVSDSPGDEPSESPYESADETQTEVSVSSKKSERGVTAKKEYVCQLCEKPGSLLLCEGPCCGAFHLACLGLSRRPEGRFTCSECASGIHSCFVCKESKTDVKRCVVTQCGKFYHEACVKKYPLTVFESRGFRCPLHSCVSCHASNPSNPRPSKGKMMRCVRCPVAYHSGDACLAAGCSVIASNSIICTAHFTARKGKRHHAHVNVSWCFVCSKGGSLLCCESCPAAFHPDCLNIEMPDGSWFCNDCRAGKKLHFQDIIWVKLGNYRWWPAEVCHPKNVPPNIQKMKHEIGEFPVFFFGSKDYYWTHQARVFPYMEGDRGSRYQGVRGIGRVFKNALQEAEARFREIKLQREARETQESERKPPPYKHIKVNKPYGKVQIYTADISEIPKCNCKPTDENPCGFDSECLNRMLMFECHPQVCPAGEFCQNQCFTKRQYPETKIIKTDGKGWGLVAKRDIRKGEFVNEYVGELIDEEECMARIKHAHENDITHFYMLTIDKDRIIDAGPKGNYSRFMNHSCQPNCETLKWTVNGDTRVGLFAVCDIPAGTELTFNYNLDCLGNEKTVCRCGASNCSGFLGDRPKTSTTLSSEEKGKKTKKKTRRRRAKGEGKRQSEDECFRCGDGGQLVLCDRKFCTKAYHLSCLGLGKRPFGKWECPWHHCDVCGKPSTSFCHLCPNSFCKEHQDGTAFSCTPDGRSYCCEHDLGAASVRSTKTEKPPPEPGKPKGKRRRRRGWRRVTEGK

[5] = molecular target: 1-phosphatidylinositol 4,5-bisphosphate phosphodiesterase beta-3 (Homo sapiens, UniProt Q01970); assay: Fluorescence-based biochemical high throughput dose response assay to identify inhibitors of phospholipase C isozymes (PLC-B3).
[6] = A375 melanoma cell cytotoxicity, dose response, counter-screen for MITF inhibitor project, CellTiter-Glo luminescence, dry powder, set 2 (AID 624489); format: functional, cell-based; settings: A-375;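 note: actives are compounds lowering A375 viability meaning general cytotoxicity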
[7] = A375 melanoma cell viability loss, dose response, counter-screen for MITF inhibitor project, CellTiter-Glo luminescence, dry powder, set 4 (AID 624364); format: functional, cell-based; settings: A-375;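 note: A375 melanoma cells are MITF independent so this is a counter screen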
[8] = HEK293T cytotoxicity, dose response, cytotoxicity control for miR-122 modulator project, cell-based, inhibitor set, cherry-pick, set 2 (AID 720697); format: functional
[9] = miR-122 activators in hepatoma reporter cells, dose response, cell-based, Huh7 psiCHECK-miR122, Renilla luciferase, cherry-picked (AID 651956); format: functional;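 note: huh7 hepatoma cells stably carrying a psiCHECK-2 miR-122 sensor plasmid; renilla luciferase signal reporting endogenous miR-122 activity after 48 h compound exposure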
Aminopeptidase N = molecular target: T4, Aminopeptidase N (Plasmodium falciparum FcB1/Columbia, UniProt O96935); assay: P. falciparum M1AAP inhibitors, biochemical, fluorogenic H-Leu-NHMec substrate, 1536-well (AID 1445); parameters: species or system Plasmodium falciparum 3D7, 3D7
T4 sequence (O96935 whole entry): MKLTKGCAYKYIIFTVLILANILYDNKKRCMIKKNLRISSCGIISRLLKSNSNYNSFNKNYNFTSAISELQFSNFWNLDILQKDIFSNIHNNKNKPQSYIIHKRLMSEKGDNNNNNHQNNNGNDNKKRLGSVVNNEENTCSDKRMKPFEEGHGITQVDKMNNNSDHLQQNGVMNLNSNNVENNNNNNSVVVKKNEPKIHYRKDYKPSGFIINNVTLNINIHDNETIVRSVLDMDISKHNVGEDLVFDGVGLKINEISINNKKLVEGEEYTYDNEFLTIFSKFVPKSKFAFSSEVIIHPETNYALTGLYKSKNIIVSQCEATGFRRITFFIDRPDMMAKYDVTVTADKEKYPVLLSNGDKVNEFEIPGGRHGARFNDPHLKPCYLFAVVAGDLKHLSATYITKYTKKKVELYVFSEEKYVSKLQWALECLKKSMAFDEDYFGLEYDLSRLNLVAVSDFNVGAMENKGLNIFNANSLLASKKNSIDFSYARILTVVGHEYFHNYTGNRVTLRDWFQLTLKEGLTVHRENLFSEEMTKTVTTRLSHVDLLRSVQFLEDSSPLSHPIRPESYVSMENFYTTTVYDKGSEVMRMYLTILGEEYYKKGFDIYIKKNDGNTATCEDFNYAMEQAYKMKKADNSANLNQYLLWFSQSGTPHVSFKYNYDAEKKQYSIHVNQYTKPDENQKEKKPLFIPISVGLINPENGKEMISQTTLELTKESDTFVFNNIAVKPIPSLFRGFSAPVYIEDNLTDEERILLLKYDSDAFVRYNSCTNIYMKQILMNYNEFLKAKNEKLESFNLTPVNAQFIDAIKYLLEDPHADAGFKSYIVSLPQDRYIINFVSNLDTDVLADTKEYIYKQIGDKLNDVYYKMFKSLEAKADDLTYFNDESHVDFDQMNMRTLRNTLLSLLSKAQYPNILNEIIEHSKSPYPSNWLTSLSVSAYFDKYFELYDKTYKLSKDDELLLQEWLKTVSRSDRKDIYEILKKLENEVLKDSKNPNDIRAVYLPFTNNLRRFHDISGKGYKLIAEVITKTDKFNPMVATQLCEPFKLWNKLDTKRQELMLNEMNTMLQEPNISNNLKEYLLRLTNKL

[10] = Late stage counterscreen for inhibitors of Trypanosoma brucei methionyl tRNA synthetase (MetRS): Luminescence-based cell-based high throughput dose response assay to identify compounds that are cytotoxic to Jurkat human T lymphocyte cells.; format: functional
[11] = reduction of Shn3 3'UTR firefly luciferase signal, dose response, Schnurri-3 inhibitor project, cell-based, Clone20 osteoblasts, cherry-pick, set 2 (AID 720490); format: functional;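 note: actives lower the luminescence signal as inhibitors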
[12] = Shn3 3'UTR reporter inhibitors, dose response, cell-based, Clone20 osteoblasts, firefly luciferase, cherry-picked (AID 624132); format: functional;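 note: firefly luciferase luminescence from reporter carrying the Shn3 3'UTR in osteoblasts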
[13] = inhibitors of PGC1a acetylation in cells, dose response, cell-based, cherry-picked samples (AID 720514); format: functional;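 note: potency may reflect raised or lowered acetylation signal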
[14] = molecular target: NAD-dependent protein deacylase sirtuin-5, mitochondrial (Homo sapiens, UniProt Q9NXA8); assay: SIRT5 deacylase inhibitors, dose response, biochemical, fluorescence imaging, cherry-pick, set 6 (AID 720597)
[15] = HepG2 cell cytotoxicity, dose response, cytotoxicity control, luminescence plate reader, powder samples, set 2 (AID 651860); format: functional, cell-based

Sequence of Tyrosyl-DNA phosphodiesterase 2 (O95551 whole entry): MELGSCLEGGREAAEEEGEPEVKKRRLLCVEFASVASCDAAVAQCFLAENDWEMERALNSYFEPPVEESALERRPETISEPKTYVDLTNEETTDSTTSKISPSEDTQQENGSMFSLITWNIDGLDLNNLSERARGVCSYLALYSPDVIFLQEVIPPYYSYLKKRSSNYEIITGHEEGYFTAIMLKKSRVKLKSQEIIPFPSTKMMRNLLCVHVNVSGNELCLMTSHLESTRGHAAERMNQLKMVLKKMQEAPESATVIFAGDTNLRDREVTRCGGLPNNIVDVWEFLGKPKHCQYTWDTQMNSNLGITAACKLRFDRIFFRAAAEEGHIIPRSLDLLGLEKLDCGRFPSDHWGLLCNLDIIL
Sequence of NAD-dependent protein deacylase sirtuin-5, mitochondrial (Q9NXA8 whole entry): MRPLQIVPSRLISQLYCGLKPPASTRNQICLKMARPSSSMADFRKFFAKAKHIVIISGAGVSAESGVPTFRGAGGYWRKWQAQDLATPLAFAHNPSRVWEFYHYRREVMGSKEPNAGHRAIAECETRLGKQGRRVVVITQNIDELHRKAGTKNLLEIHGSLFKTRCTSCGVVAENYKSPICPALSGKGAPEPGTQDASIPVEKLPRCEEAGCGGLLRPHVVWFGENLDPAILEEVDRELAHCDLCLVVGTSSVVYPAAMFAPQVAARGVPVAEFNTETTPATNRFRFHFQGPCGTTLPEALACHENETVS
Sequence of Paired box protein Pax-8 (Q06710 whole entry): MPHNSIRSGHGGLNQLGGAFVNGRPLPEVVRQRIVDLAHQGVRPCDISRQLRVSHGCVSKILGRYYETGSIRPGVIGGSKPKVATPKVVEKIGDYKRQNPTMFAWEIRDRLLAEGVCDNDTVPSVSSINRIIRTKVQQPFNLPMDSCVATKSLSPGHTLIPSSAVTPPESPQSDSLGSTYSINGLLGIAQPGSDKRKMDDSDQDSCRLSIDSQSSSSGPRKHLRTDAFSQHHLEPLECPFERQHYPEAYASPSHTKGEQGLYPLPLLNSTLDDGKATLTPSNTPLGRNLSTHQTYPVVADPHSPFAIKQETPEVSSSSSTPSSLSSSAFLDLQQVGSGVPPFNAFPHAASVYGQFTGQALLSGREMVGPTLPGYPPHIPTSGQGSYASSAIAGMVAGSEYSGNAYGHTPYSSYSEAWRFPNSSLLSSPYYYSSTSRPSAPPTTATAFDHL
Sequence of 1-phosphatidylinositol 4,5-bisphosphate phosphodiesterase beta-3 (Q01970 whole entry): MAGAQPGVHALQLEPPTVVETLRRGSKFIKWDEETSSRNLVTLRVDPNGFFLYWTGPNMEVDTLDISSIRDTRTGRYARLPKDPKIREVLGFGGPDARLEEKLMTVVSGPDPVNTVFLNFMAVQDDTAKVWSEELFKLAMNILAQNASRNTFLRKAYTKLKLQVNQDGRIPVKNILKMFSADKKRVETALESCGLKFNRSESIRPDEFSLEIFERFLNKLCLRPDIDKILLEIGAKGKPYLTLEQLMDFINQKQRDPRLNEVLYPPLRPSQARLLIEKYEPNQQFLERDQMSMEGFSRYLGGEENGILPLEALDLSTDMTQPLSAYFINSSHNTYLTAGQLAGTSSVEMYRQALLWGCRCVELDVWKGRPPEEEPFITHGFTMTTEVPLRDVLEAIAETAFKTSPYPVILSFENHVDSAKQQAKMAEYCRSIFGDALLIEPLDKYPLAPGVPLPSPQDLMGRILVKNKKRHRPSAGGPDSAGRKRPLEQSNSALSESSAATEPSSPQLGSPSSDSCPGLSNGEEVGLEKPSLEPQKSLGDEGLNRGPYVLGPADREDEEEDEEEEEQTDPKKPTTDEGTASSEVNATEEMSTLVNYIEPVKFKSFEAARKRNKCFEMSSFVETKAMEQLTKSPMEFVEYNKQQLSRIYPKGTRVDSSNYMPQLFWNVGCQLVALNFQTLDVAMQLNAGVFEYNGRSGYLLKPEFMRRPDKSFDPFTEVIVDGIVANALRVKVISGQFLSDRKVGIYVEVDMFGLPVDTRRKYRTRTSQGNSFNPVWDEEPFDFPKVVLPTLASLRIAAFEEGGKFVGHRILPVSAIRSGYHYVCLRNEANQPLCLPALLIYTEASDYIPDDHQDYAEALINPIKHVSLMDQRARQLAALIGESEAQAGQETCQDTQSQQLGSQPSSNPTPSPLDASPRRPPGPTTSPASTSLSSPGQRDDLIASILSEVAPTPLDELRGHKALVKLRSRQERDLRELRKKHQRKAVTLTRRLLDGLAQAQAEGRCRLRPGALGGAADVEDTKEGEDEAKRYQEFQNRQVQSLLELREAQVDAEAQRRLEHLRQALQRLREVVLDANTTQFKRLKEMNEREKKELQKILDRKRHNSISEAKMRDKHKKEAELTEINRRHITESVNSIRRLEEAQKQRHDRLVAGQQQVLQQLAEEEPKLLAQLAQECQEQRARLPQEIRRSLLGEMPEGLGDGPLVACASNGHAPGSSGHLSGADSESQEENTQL
Sequence of 1-phosphatidylinositol 4,5-bisphosphate phosphodiesterase gamma-1 (P19174 whole entry): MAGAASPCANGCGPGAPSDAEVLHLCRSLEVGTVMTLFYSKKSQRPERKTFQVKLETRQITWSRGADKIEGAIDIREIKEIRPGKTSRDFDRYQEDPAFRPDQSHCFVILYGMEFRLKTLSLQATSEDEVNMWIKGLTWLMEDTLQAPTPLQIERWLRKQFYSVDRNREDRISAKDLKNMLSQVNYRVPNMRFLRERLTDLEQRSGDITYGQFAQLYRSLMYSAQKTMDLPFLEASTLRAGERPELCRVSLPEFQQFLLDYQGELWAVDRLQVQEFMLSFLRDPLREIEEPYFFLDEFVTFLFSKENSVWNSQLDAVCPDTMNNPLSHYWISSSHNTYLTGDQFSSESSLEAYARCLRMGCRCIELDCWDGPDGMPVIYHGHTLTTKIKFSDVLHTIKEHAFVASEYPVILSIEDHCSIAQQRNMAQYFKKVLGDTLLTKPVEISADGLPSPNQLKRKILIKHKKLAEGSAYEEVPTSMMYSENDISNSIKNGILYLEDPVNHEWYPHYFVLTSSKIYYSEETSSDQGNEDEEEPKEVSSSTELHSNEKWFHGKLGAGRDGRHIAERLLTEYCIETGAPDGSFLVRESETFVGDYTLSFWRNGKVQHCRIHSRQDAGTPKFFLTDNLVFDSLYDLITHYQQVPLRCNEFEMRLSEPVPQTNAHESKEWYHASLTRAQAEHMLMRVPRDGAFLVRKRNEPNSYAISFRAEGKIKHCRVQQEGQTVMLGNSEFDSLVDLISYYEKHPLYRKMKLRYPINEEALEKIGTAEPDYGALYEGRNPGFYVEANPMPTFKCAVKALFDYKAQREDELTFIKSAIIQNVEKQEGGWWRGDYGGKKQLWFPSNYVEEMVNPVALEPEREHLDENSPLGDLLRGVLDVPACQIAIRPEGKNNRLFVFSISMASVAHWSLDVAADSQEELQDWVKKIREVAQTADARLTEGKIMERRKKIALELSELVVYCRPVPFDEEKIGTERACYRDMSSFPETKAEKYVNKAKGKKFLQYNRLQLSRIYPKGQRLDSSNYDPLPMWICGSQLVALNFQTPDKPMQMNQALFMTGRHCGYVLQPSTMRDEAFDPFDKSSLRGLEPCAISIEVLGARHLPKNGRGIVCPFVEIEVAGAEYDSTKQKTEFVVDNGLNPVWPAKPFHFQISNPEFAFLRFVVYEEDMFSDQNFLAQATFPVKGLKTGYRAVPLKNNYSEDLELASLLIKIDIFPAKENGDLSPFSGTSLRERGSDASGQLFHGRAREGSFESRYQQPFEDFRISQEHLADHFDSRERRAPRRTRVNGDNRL
Sequence of Kallikrein-7 (P49862 whole entry): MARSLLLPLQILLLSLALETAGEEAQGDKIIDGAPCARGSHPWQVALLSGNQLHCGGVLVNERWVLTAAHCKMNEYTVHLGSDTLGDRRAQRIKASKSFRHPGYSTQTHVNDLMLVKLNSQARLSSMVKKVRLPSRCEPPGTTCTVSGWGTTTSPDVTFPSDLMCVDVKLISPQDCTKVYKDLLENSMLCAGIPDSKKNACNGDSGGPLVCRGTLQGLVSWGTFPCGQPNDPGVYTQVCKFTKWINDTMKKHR

SMILES: CC(=O)Nc1ccc2[nH]c(-c3cccs3)nc2c1
- EC50 (Kallikrein-7): 8.78 µM (active)

SMILES: NC1=C(Cl)C(=O)c2ccc(S(N)(=O)=O)cc2C1=O
- AC50 [1]: 8.31 µM (active)
- EC50 (Hexokinase-1): 1.06 µM (active)
- IC50 [2]: 1.07 µM (active)
- AC50 (Paired box protein Pax-8): 1.47 µM (active)
- EC50 (Hexokinase HKDC1): > 80 µM (inactive)
- IC50 [3]: > 122 µM (inactive)
- AC50 [4]: 0.144 µM (active)
- IC50 [5]: > 122 µM (inactive)

SMILES: O=C1C(NS(=O)(=O)c2cccs2)=C(N2CCCCC2)C(=O)c2ccccc21
- AC50 [6]: > 70 µM (inactive)
- AC50 [7]: > 70 µM (inactive)

SMILES: Cc1cc(NS(=O)(=O)c2ccc(NC(=O)C(CC(C)C)N3C(=O)c4ccccc4C3=O)cc2)nc(C)n1 (stereo not given)
- AC50 [8]: 8.51 µM (active)
- AC50 [9]: 49.8 µM (active)
- IC50 (Aminopeptidase N): 38 µM (active)

SMILES: CC(CC(=O)Nc1cccc(Br)c1)=NNC(=O)c1ccc(O)cc1O
- IC50 [10]: > 83.3 µM (inactive)

SMILES: CC(Oc1ccc(F)cc1)C(=O)N(CCC1=CCCCC1)c1c(N)n(Cc2ccccc2)c(=O)[nH]c1=O (stereo not given)
- AC50 [11]: 22.6 µM (active)
- AC50 [12]: 7.99 µM (active)

SMILES: CC(C)NC(=O)Nc1ccc2c(c1)C(=O)N([C@@H](C)CO)C[C@H](C)[C@@H](CN(C)C(=O)CCC(F)(F)F)OCCCC[C@@H](C)O2
- AC50 [13]: 38 µM (active)

SMILES: C[C@@H]1CN([C@H](C)CO)C(=O)CCCn2nncc2CO[C@H]1CN(C)S(=O)(=O)c1ccc(Cl)cc1
- AC50 [14]: 26.7 µM (active)

SMILES: NC(=O)[C@H]1CCCC[C@H]1C(=O)N1CCc2ccccc2[C@H]1CN1C(=O)c2ccccc2C1=O
- AC50 [15]: > 52 µM (inactive)
